This note sets out measurements from article PMC6156138, “Combination of a Latency-Reversing Agent With a Smac Mimetic Minimizes Secondary HIV-1 Infection in vitro” (Frontiers in Microbiology, 2018).

Structures are written as SMILES.

Test [1] deals with latent HIV-1-infected ACH-2 cells. The test can be described thus: HIV reactivation from latent cells: intracellular HIV-1 RNA (qRT-PCR). Type of test: cell-based. The conditions noted are these: 24 h (Figure 1C). As to the method: (§1) The reactivation of HIV-1 from latently infected cells was determined by the measurement of supernatant p24 antigen and intracellular HIV-1 RNA levels. ACH-2 cells or U1 cells (5 × 10^5 cells/mL) were placed in 96-well plates, and then the cells were incubated with different concentrations of drugs for 24 h to extract RNA and for 48 h to collect the supernatant. The increase in supernatant p24 antigen levels was measured using […] G1200 (Fujirebio, Tokyo, Japan). The total RNA was extracted using an RNeasy Mini Kit (Qiagen, Hilden, Germany), following the manufacturer’s protocols. The cDNA was synthesized using PrimeScript RT Master Mix (Takara Bio, Shiga, Japan), and quantitative real-time PCR analyses for the intracellular HIV-1 RNA were carried out with PowerUp^TM SYBR Green Master Mix (Applied Biosystems, Foster City, CA, United States). The oligonucleotide primers used were as follows: 5′-[…]-3′ (forward) and 5′-[…]-3′ (reverse) for HIV-RNA detection; 5′-[…]-3′ (forward) and 5′-[…]-3′ (reverse) for β-actin. The HIV-RNA expressions were normalized with that of β-actin, which was indicated as the relative quantity, and the increase in HIV-1 RNA levels in the presence of a drug was compared with that without a drug.
(§2) FIGURE 1 (A,B) The increase in viral production from ACH-2 cells (A) and U1 cells (B) was examined by supernatant p24 antigen levels on day 2. […]
A general note: Quantitative PCR measures a nucleic acid by following its amplification.

For test [2], the system named is latent HIV-1-infected U1 cells. The test is described as above. It counts as cell-based. The conditions noted are these: 24 h (Figure 1D). As for the experimental part: as §1, §2
In another test the test system is ACH-2 cells. The test is described as follows: FACS analysis of active caspase-3 expression. It counts as cell-based. Particulars: for percentage of active caspase-3 cells: ACH-2 cells, 24 h. As for the experimental part:
(§3) Intracellular HIV-1 p24 levels and active form of caspase-3 expression were determined as previously described ([Hattori et al., 2009]; [Duro et al., 2010]; [Matsuda et al., 2015]). In brief, ACH-2 cells or U1 cells (2.5 × 10^5 cells/mL) were fixed with 1% paraformaldehyde/phosphate buffered saline (PBS) for 20 min and were permeabilized with Flow Cytometry Perm Buffer (TONBO biosciences, San Diego, CA, United States). After incubation on ice for 5 min, the cells were stained with anti-HIV-1 p24 (24-4)-FITC mAb (Santa Cruz Biotechnology, Dallas, TX, United States) and/or with Alexa Fluor 647-conjugated anti-active caspase-3 mAb (C92-605) (BD Pharmingen, San Diego, CA, United States) for 30 min on ice. Cells were then analyzed on a BD FACSVerse flow cytometer (BD Biosciences, Franklin Lakes, NJ, United States). The corrected data were analyzed with FlowJo software (Tree Star, San Carlos, CA, United States).
(§4) FIGURE 3 (A,B) ACH-2 (A) and U1 cells (B) were treated with birinapant (50 nM), PEP005 (5 nM), birinapant plus PEP005, TNF-α (10 ng/ml), and intracellular expression of caspase-3 was examined after 24 h of incubation. The percentage of active caspase-3 cells was determined by comparison with unstimulated cells. (C) ACH-2 cells after 24 h of PEP005 (0∼50 nM) treatment with or without birinapant (50 nM) were separately analyzed in p24^+ and p24^- populations for caspase-3 expression.
FIGURE 4 (A) ACH-2 cells were exposed to birinapant (50 nM), PEP005 (5 nM), birinapant plus PEP005, TNF-α (10 ng/ml), or birinapant plus TNF-α treatment and were cultured for 5 days, and data (FACS analysis) were collected at days 1, 3, and 5. (B) Expression of active caspase-3 in p24^+/^- populations is shown. (C) Changes in the supernatant p24 antigen levels in the presence of drug(s) on days 1, 3, and 5. […]

The next test deals with J1.1 cells. The test is described as follows: Virus production in J1.1 cells (viral RNA copies in supernatant). Type of test: cell-based, HIV-1. Particulars: birinapant combined with TNF-α 20 ng/mL, 48 h. As for the experimental part: Cells were treated with birinapant with ( [drawing 1] ) or without ( [drawing 2] ) TNF-α (20 ng/mL). After 48 h incubation, culture supernatant was harvested, and viral RNA was extracted. Viral copy numbers in culture supernatant were measured by real-time RT-PCR. Click here for additional data file.

The next test concerns TNF-α. The test is described as follows: TNF-α production in culture supernatants (ELISA). The conditions noted are these: ACH-2 cells, PEP005 0–50 nM, 24 h. Type of test: cell-based. As to the method: The expression of TNF-α mRNA was measured as previously described ([Zhang et al., 2014]). For the detection of supernatant TNF-α levels, ACH-2 cells (2.5 × 10^5 cells/ml) were incubated with various concentrations of PEP005 (0–50 nM) for 24 h at 37°C. Culture supernatants were harvested and centrifuged to remove cellular debris. The production of TNF-α was measured by using a Human TNF alpha Platinum ELISA Kit (eBioscience, Hatfield, United Kingdom) according to the manufacturer’s instructions. The sensitivity of the assay was 2.3 pg/ml.
Supplementary file Data_Sheet_6.PDF: FIGURE S6 Elevation of supernatant TNF-α protein and mRNA levels in the presence of PEP005. (A) ACH-2 cells were exposed to PEP005, incubated for 24 h, supernatant was harvested, and TNF-α protein levels were measured using ELISA. (B) Changes in mRNA levels of TNF-α in PEP005-treated primary CD4^+ T-cells in eight HIV-1 patients (Supplementary Table S3). Cells were harvested after 24 h incubation. Click here for additional data file.

The next test deals with U1 cells. The test can be described thus: FACS analysis of active caspase-3 expression. Type of test: cell-based. The conditions noted are these: 24 h, birinapant 50 nM, PEP005 5 nM, TNF-α 10 ng/ml. As to the method:
as §3, §4

[3] abbreviates: birinapant 50 nM, PEP005 5 nM, TNF-α 10 ng/ml.

For the compound `CC[C@H](NC(=O)[C@H](C)NC)C(=O)N1C[C@@H](O)C[C@H]1Cc1c(-c2[nH]c3cc(F)ccc3c2C[C@@H]2C[C@H](O)CN2C(=O)[C@H](CC)NC(=O)[C@H](C)NC)[nH]c2cc(F)ccc12` [Birinapant], the “intracellular HIV-1 mRNA levels” value in test [1] and in test [2] was “only had a minor effect on HIV-1 reactivation” in each case. Further, the “percentage of active caspase-3 cells” value in the test on ACH-2 cells (setting [3]) is reported as 2.96%. Besides, the “virus production (viral copy numbers in culture supernatant)” value in the test on J1.1 cells is given as “suppresses virus production”.
Take `C/C=C(/C)C(=O)O[C@H]1C(C)=C[C@]23C(=O)[C@@H](C=C(CO)[C@@H](O)[C@]12O)[C@H]1[C@@H](C[C@H]3C)C1(C)C` [PEP005, ingenol-3-angelate]: the “Active caspase-3” value in the test with ACH-2 cells (ACH-2, 24 h, p24 (+) cells, Birinapant (-), PEP005 50nM) is listed as 13.0%; with ACH-2 cells (ACH-2, 24 h, p24 (-) cells, Birinapant (-), PEP005 50nM), 44.7%; in the test on ACH-2 cells (ACH-2, Day 5, p24 (+) cells, birinapant 50 nM, PEP005 5 nM, TNF-α 10 ng/ml), about 20.7%. Further, the entries for the “percentage of active caspase-3 cells” value in the test with ACH-2 cells (setting [3]) and in the test on U1 cells were 9.98% and 10.8%, respectively. The “supernatant TNF-α level” value with TNF-α is on record as “elevated”.
